In US20060251651A1, “Antagonist and agonist which bind to a strong binding site of chemokine receptor” (priority 2002, published 2006):
“And” between values parts separate entries of the source, which are not always exact repeats. Identical values can stand only once. “Also recorded” adds a separate entry of the source. Like-named read-outs stand apart in the source and are kept apart here.

Key:
hCCR5 [1] = molecular target: T1, hCCR5 (Homo sapiens, UniProt P51681); experiment: Anti-hCCR5 antibody binding inhibition test (flow cytometry); parameters: expressed in transfected cells; host or cells: Ba/F3 cells electroporated with linearised pEF-BOS-bsr/hCCR5, blasticidin-selected clone; settings: hCCR5-CHO cells, 10 μmol/l of each compound, FITC-labeled antibody
T1 sequence (P51681 whole entry): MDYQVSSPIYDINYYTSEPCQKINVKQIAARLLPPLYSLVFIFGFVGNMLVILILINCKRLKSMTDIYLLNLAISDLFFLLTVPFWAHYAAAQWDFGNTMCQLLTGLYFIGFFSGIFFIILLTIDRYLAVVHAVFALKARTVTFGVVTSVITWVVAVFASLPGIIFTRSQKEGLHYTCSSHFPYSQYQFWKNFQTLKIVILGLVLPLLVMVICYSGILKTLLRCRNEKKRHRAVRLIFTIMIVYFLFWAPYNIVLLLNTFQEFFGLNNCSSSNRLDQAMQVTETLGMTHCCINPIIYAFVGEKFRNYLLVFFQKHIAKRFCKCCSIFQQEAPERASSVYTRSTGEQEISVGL
Experimental: […] The medium was removed from the flask, and the cells were peeled off and recovered by adding 1 mmol/l EDTA/PBS. The recovered cells were washed once with PBS and again suspended in PBS, and then the number of cells was counted. After centrifugation and subsequent removal of the supernatant by suction, the cells were suspended in an assay buffer (0.5% FBS/Ham's F-12 medium). Each of the compounds to be tested was added to the cell suspension and incubated on ice. An FITC-labeled anti-hCCR5 antibody (45531.111 or 45523.111) or an FITC-labeled isotype control antibody was further added thereto and allowed to undergo the reaction on ice under shading. After the reaction, the cells were washed twice with ice-cooled PBS and again suspended in ice-cooled FACS buffer (2% FBS/PBS), and the amount (fluorescence intensity) of the bound anti-hCCR5 antibody was measured using a flow cytometer (BECTON DICKINSON).

hCCR5 [2] = molecular target: T1, hCCR5; experiment: Ligand binding inhibition test for CCR5 under severe washing condition; parameters: expressed in transfected cells; host or cells: CHO-dhfr(-) stably transfected with pEF-BOS-bsr/hCCR5; settings: for IC50: hCCR5-CHO cells, compound 40 minutes, washed 8 times with PBS, 4 hours at 37° C., then radioisotope-labeled ligand; for inhibitory activity, times higher than that of SCH-351125 / inhibitory activity, times higher than that of TAK-779: ratio of IC50 values under severe washing condition
Experimental: Inhibitory effects of CCR5 antagonists (e.g., TAK-779, SCH-351125 and triazaspiro[5.5]undecane derivatives) were examined using a binding test system of CCR5 endogenous ligand to CCR5.
Human CCR5 expressing cells (hCCR5-CHO cells) were inoculated into a culture plate, cultured using a medium (Ham's F-12 medium/10% FBS/Antibiotic-Antimycotic) at 37° C. for 1 day (or 2 days) in a CO2 incubator of 5% CO2 and used in the test. The medium in each well was discarded, the cells were washed with an assay buffer (Ham's F-12 medium/0.5% BSA/20 mmol/l HEPES), and the assay buffer was added to each well. A compound to be tested having respective concentration was added thereto and incubated at room temperature for 40 minutes, and then the cells were washed 8 times with PBS (1 ml/well). The assay buffer was further added and incubated at 37° C. for 4 hours. After 4 hours, the assay buffer was discarded and a radioisotope-labeled ligand was added. The culture mixture containing the cells was incubated at room temperature for 40 minutes and then washed three times with 1 ml/well of ice-cooled PBS. The cells were lysed with 1 mol/I sodium hydroxide aqueous solution, and radioactivity of the cell lysate was measured using a γ counter.

hCCR5 [3] = molecular target: T1, hCCR5; experiment: Inhibitory action upon the hCCR5 binding of tritium-labeled compound 1 (competition test); parameters: expressed in transfected cells; host or cells: Ba/F3 cells electroporated with linearised pEF-BOS-bsr/hCCR5, blasticidin-selected clone; settings: hCCR5-CHO cells; for inhibition of the hCCR5 binding of tritium-labeled compound 1: when the concentration was increased
Experimental: Human CCR5 expressing cells (hCCR5-CHO cells) were inoculated into a culture plate, cultured using a medium (Ham's F-12 medium/10% FBS/Antibiotic-Antimycotic) at 37° C. for 1 day in a CO2 incubator of 5% CO2 and used in the test. The medium in each well was discarded, the cells were washed with an assay buffer (Ham's F-12 medium/0.5% BSA/20 mmol/l HEPES), and the assay buffer was added thereto. […] After incubation at room temperature for 2 hours, the cells were washed with 1 ml/well of ice-cooled D-PBS. The cells were lysed with 1 mol/l NaOH and neutralized, and then a scintillator (ACS II, Amersham) was added thereto. Radioactivity of each vial was measured using a liquid scintillation counter (TRI-CARB 2900TR, Perkin Elmer Life Sciences).

hCCR5 [4] = molecular target: T1, hCCR5; experiment: Migration test induced by MIP-1α using hCCR5-Ba/F3 cells; type: cell-based; parameters: expressed in transfected cells; host or cells: Ba/F3 cells electroporated with linearised pEF-BOS-bsr/hCCR5, blasticidin-selected clone; settings: 24 well transwell, 3 hours; read-out: IC50, inhibition of migration of hCCR5-Ba/F3 cells by MIP-1α
Experimental: Firstly, 0.5 ml of a medium containing […] was added to the lower chamber (transwell bottom) of a 24 well transwell plate. […] The migration was started by moving the upper chamber wells of the transwell plate to the lower chamber wells containing chemokine. […] Measurement of the number of cells was carried out using a flow cytometer (BECTON DICKINSON), and the number of cells inside the gate (FSC×SSC) was counted. The number of migrated cells was defined as their ratio (%) to the count when the firstly added cells were analyzed by FACS, and the IC50 value was calculated from the inhibitory activity for the DMSO control group.

hCCR5 [5] = molecular target: T1, hCCR5; experiment: Persistency of hCCR5 binding in the living body of mouse after compound administration; type: in vivo; parameters: expressed in transfected cells; host or cells: Ba/F3 cells electroporated with linearised pEF-BOS-bsr/hCCR5, blasticidin-selected clone; settings: Balb/c mouse
Experimental: The peripheral blood was centrifuged using Lymphocyte-M to prepare PBMC, and the spleen was crushed, subjected to hemolytic treatment and then washed to obtain cells. The thus prepared cells were stained with PE-labeled anti-hCCR5 antibody (45531.111). CFSE-positive hCCR5-Ba/F3 Cells were detected by a flow cytometer, and fluorescence intensity (mean value) of PE-labeled anti-hCCR5 antibodies (2D7 and 45531.111) bound to the cells was measured.
The occupying ratio was calculated by the following formulae.
Correction Value [formula]
Receptor Occupying Ratio (R) [formula]

[6] = Blood plasma levels of compound 1 in mouse after administration into abdominal cavity; type: in vivo; settings: intraperitoneal, Balb/c mouse, read-out: blood plasma level

| IC50 (hCCR5 [2]) [nM] | inhibitory activity, times higher than that of SCH-351125 (hCCR5 [2]) | inhibitory activity, times higher than that of TAK-779 (hCCR5 [2]) | SMILES | inhibition of binding of anti-hCCR5 antibody 45523.111 to hCCR5 expressing cells (hCCR5 [1]) | inhibition of binding of anti-hCCR5 antibody 45531.111 to hCCR5 expressing cells (hCCR5 [1]) | inhibition of the hCCR5 binding of tritium-labeled compound 1 (hCCR5 [3]) | IC50 (hCCR5 [4]) | inhibition of binding of anti-hCCR5 antibody 45531.111 to hCCR5 expressing cells (hCCR5 [1]; hydrochloride) | also measured |
| --- | --- | --- | --- | --- | --- | --- | --- | --- | --- |
| 16.7 | – | – | CCO/N=C(\c1ccc(Br)cc1)C1CCN(C2(C)CCN(C(=O)c3c(C)cc[n+]([O-])c3C)CC2)CC1 [SCH-351125] | inhibited binding; also recorded: strongly inhibited | weak | complete inhibition | 14.4 nM and 21 nM | – | – |
| – | about 4 times | about 2.5 times | CCCCN1C(=O)[C@@H]([C@H](O)C2CCCCC2)NC(=O)C12CCN(Cc1ccc(Oc3ccc(C(=O)O)cc3)cc1)CC2.Cl [compound 1, (3R)-1-butyl-2,5-dioxo-3-((1R)-1-hydroxy-1-cyclohexylmethyl)-9-(4-(4-carboxyphenyloxy)phenylmethyl)-1,4,9-triazaspiro[5.5]undecane hydrochloride] | strongly inhibited | – | – | – | strongly inhibited; also recorded: strong | hCCR5 occupied in the spleen (hCCR5 [5]; 3 mg/kg into abdominal cavity, 0.5 hours): 92%; hCCR5 occupied in the spleen (hCCR5 [5]; 3 mg/kg into abdominal cavity, 4 hours): 55%; hCCR5 occupied in the spleen (hCCR5 [5]; 3 mg/kg into abdominal cavity, 8 hours): 32%; hCCR5 occupied in the spleen (hCCR5 [5]; 30 mg/kg into abdominal cavity, 0.5 hours): 96%; hCCR5 occupied in the spleen (hCCR5 [5]; 30 mg/kg into abdominal cavity, 4 hours): 69%; hCCR5 occupied in the spleen (hCCR5 [5]; 30 mg/kg into abdominal cavity, 8 hours): 54%; concentration at 0.5 h ([6]; 3 mg/kg into abdominal cavity): 352 nM; concentration at 4 h ([6]; 3 mg/kg into abdominal cavity): 5 nM; concentration at 8 h ([6]; 3 mg/kg into abdominal cavity): 1 nM; concentration at 0.5 h ([6]; 30 mg/kg into abdominal cavity): 1610 nM; concentration at 4 h ([6]; 30 mg/kg into abdominal cavity): 22 nM; concentration at 8 h ([6]; 30 mg/kg into abdominal cavity): 4 nM; competition with TAK-779 and SCH-351125 for CCR5 (hCCR5 [3]; displacement curves shifted in parallel, hydrochloride): competes; also recorded: Competitively antagonizes |
| 1.5 | about 11 times | about 7 times | CCCCN1C(=O)[C@@H]([C@H](O)C2CCCCC2)NC(=O)C12CCN(Cc1ccc(Oc3ccc(C(=O)NC)cc3)cc1)CC2.Cl [compound 2, (3R)-1-butyl-2,5-dioxo-3-((1R)-1-hydroxy-1-cyclohexylmethyl)-9-(4-(4-methylaminocarbonylphenyloxy)phenylmethyl)-1,4,9-triazaspiro[5.5]undecane hydrochloride] | strongly inhibited | – | – | – | strongly inhibited; also recorded: strong | – |

| SMILES | IC50 (hCCR5 [2]) [nM] | inhibitory activity, times higher than that of SCH-351125 (hCCR5 [2]) | inhibitory activity, times higher than that of TAK-779 (hCCR5 [2]) | inhibition of binding of anti-hCCR5 antibody 45523.111 to hCCR5 expressing cells (hCCR5 [1]) | inhibition of binding of anti-hCCR5 antibody 45531.111 to hCCR5 expressing cells (hCCR5 [1]) | inhibition of the hCCR5 binding of tritium-labeled compound 1 (hCCR5 [3]) | IC50 (hCCR5 [4]) | inhibition of binding of anti-hCCR5 antibody 45531.111 to hCCR5 expressing cells (hCCR5 [1]; hydrochloride) | also measured |
| --- | --- | --- | --- | --- | --- | --- | --- | --- | --- |
| Cc1ccc(-c2ccc3c(c2)C=C(C(=O)Nc2ccc(C[N+](C)(C)C4CCOCC4)cc2)CCC3)cc1.[Cl-] [TAK-779] | 10.4 | – | – | only weakly; also recorded: weak inhibition | only weakly and weak | complete inhibition | 55 nM | – | – |
